Data from US20220348558A1, “INHIBITORS OF ENCEPHALITIC ALPHAVIRUSES” (priority 2019, published 2022).

Experiments:
VEEV TC83 = assay: microbe, parasite or virus in culture; type: cell-based; settings: Venezuelan equine encephalitis virus, Vero 76, 48 h, read-out: VEEV TC83 EC50 nM
WEEV California = assay: microbe, parasite or virus in culture; type: cell-based; settings: Western equine encephalitis virus, Vero 76, 48 h, read-out: WEEV California EC50 nM

Row | SMILES | EC50 (VEEV TC83) | EC50 (WEEV California)
1 | COc1ccc(-n2c([C@H]3CCCN3)nc3ccc([N+](=O)[O-])cc3c2=O)cc1 [Example 9, (R)-3-(4-methoxyphenyl)-6-nitro-2-(pyrrolidin-2-yl) quinazolin-4 (3H)-one] | 1 to 50 nM | 1 to 50 nM
2 | COc1c(F)cc(-n2c(C34CC(CN3)C4)nc3c(-c4ccnc(C)c4)cc(C#N)cc3c2=O)cc1F [Example 173, 2-(2-azabicyclo[2.1.1]hexan-1-yl)-3-(3,5-difluoro-4-methoxyphenyl)-8-(2-methylpyridin-4-yl)-4-oxo-3,4-dihydroquinazoline-6-carbonitrile] | 51 to 150 nM | 51 to 150 nM
3 | COc1ccc(-n2c([C@@H]3CCCN3)nc3c(C)cc([N+](=O)[O-])cc3c2=O)cc1F [Example 69, (S)-3-(3-fluoro-4-methoxyphenyl)-8-methyl-6-nitro-2-(pyrrolidin-2-yl) quinazolin-4 (3H)-one] | 151 to 500 nM | 51 to 150 nM
4 | COc1ccc(-n2c([C@@H]3CCCN3)nc3c(-c4ccncc4)cc(C#N)cc3c2=O)cc1F [Example 110, (S)-3-(3-fluoro-4-methoxyphenyl)-4-oxo-8-(pyridin-4-yl)-2-(pyrrolidin-2-yl)-3,4-dihydroquinazoline-6-carbonitrile] | 1 to 50 nM | 1 to 50 nM
5 | COc1c(F)cc(-n2c(C34CC(CN3)C4)nc3c(-c4cc(C)nc(C)c4)cc(C#N)cc3c2=O)cc1F [Example 174, 2-(2-azabicyclo[2.1.1]hexan-1-yl)-3-(3,5-difluoro-4-methoxyphenyl)-8-(2,6-dimethylpyridin-4-yl)-4-oxo-3,4-dihydroquinazoline-6-carbonitrile] | 51 to 150 nM | 51 to 150 nM
6 | COc1ccc(-n2c([C@@H]3C[C@@H](O)CN3)nc3c(-c4ccc(C)nc4)cc(C#N)cc3c2=O)cc1F [Example 116, 3-(3-fluoro-4-methoxyphenyl)-2-((2S,4R)-4-hydroxypyrrolidin-2-yl)-8-(6-methylpyridin-3-yl)-4-oxo-3,4-dihydroquinazoline-6-carbonitrile] | > 1000 nM | > 1000 nM
7 | Cc1cccc(-n2c([C@H]3CCCN3)nc3ccc([N+](=O)[O-])cc3c2=O)c1 [Example 36, (R)-6-nitro-2-(pyrrolidin-2-yl)-3-(m-tolyl)quinazolin-4 (3H)-one] | 51 to 150 nM | 501 to 1000 nM
8 | COc1ccc(-n2c([C@H]3CCCN3)nc3cccc([N+](=O)[O-])c3c2=O)cc1 [Example 49, (R)-3-(4-methoxyphenyl)-5-nitro-2-(pyrrolidin-2-yl)quinazolin-4 (3H)-one] | > 1000 nM | > 1000 nM
9 | COc1ccc(-n2c(-c3cn(C)cn3)nc3c(-c4ccc(C)nc4)cc(C#N)cc3c2=O)cc1F [Example 200, 3-(3-fluoro-4-methoxyphenyl)-2-(1-methyl-1H-imidazol-4-yl)-8-(6-methylpyridin-3-yl)-4-oxo-3,4-dihydroquinazoline-6-carbonitrile] | > 1000 nM | > 1000 nM
10 | COc1ccc(-n2c(C3CCCN3)nc3c(CCc4ccc(C)nc4)cc(C#N)cc3c2=O)cc1F (stereo not drawn) [Example 195, 3-(3-Fluoro-4-methoxyphenyl)-8-(2-(6-methylpyridin-3-yl)ethyl)-4-oxo-2-(pyrrolidin-2-yl)-3,4-dihydroquinazoline-6-carbonitrile] | 51 to 150 nM | 51 to 150 nM
11 | COc1ccc(-n2c(-c3cncn3C)nc3c(-c4ccc(C)nc4)cc(C#N)cc3c2=O)cc1F [Example 201, 3-(3-fluoro-4-methoxyphenyl)-2-(1-methyl-1H-imidazol-5-yl)-8-(6-methylpyridin-3-yl)-4-oxo-3,4-dihydroquinazoline-6-carbonitrile] | > 1000 nM | > 1000 nM
12 | COc1ccc(-n2c([C@H]3CCCN3)nc3c(C)cc(C#N)cc3c2=O)cc1F [Example 52, (R)-3-(3-fluoro-4-methoxyphenyl)-8-methyl-4-oxo-2-(pyrrolidin-2-yl)-3,4-dihydroquinazoline-6-carbonitrile] | 1 to 50 nM | 1 to 50 nM
